Data reported in US20230416225A1, “DIAMINOPYRIMIDINE CARBOXAMIDE INHIBITORS OF HPK1” (MERCK SHARP & DOHME LLC, priority 2020, published 2023).

The compounds below were run against T1, Human HPK1, catalytic domain (Homo sapiens, UniProt Q92918) (assay: HPK1-SLP76 TR-FRET assay). Details: 75 pM HPK1, 10 uM ATP, 10 nM SLP76, 30 min compound pre-incubation.
T1 construct: purchased Carna
T1 sequence (Q92918 1-346): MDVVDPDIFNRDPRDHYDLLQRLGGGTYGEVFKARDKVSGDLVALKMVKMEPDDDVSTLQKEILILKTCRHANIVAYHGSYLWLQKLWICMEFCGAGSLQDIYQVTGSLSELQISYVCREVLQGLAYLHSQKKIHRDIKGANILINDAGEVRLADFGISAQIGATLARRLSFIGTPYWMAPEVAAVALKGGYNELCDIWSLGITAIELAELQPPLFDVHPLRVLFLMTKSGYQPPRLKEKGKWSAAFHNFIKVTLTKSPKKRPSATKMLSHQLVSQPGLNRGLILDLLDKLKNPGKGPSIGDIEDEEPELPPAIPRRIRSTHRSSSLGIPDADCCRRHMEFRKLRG
Type: biochemical

IC50	SMILES
0.66 nM	COc1cc2c(cc1Nc1ncc(C(N)=O)c(Nc3ccccc3CC3(F)COC3)n1)CN(C)CC2 [Example 13-4, 4-({2-[(3-fluorooxetan-3-yl)methyl]phenyl}amino)-2-[(6-methoxy-2-methyl-1,2,3,4-tetrahydroisoquinolin-7-yl)amino]pyrimidine-5-carboxamide]
0.51 nM	COc1cc2c(cc1Nc1ncc(C(N)=O)c(NCc3c(F)ccc(F)c3F)n1)CN(C)CC2 [Example 26-45, 2-[(6-methoxy-2-methyl-1,2,3,4-tetrahydroisoquinolin-7-yl)amino]-4-{[(2,3,6-trifluorophenyl)methyl]amino}pyrimidine-5-carboxamide]
1.23 nM	NC(=O)c1cnc(Nc2cccc(C3CC3)c2)nc1Nc1cccc2c1CCNC2=O [Example 25-25, 2-[(3-cyclopropylphenyl)amino]-4-[(1-oxo-1,2,3,4-tetrahydroisoquinolin-5-yl)amino]pyrimidine-5-carboxamide]
326 nM	COc1cc2c(cc1Nc1ncc(C(N)=O)c(Nc3ccccc3C[C@@H](O)c3ccccc3)n1)CN(C)CC2 [Example 13-10, 4-({2-[(2R)-2-hydroxy-2-phenylethyl]phenyl}amino)-2-[(6-methoxy-2-methyl-1,2,3,4-tetrahydroisoquinolin-7-yl)amino]pyrimidine-5-carboxamide]
17.8 nM	COc1cc2c(cc1Nc1ncc(C(N)=O)c(N[C@@H]3c4ccccc4C[C@H]3O)n1)CN(C)CC2 [Example 26-65, 4-{[(1R,2R)-2-hydroxy-2,3-dihydro-1H-inden-1-yl]amino}-2-[(6-methoxy-2-methyl-1,2,3,4-tetrahydroisoquinolin-7-yl)amino]pyrimidine-5-carboxamide]

More lines, now with the values behind:

SMILES	IC50
COc1cc2c(cc1Nc1ncc(C(N)=O)c(Nc3ccccc3N3C(=O)OC[C@@H]3C)n1)CN(C)CC2 [Example 7-2, 2-[(6-methoxy-2-methyl-1,2,3,4-tetrahydroisoquinolin-7-yl)amino]-4-({2-[(4S)-4-methyl-2-oxo-1,3-oxazolidin-3-yl]phenyl}amino)pyrimidine-5-carboxamide]	0.15 nM
CN1CCc2cc(F)c(Nc3ncc(C(N)=O)c(Nc4cccc5c4OC(C)(C)C5)n3)cc2C1 [Example 4-32, 4-[(2,2-dimethyl-2,3-dihydro-1-benzofuran-7-yl)amino]-2-[(6-fluoro-2-methyl-1,2,3,4-tetrahydroisoquinolin-7-yl)amino]pyrimidine-5-carboxamide]	1.13 nM
NC(=O)c1cnc(Nc2ccc3c(c2)COCC3)nc1Nc1ccccc1Br [Example 7-107, 4-[(2-bromophenyl)amino]-2-[(3,4-dihydro-1H-2-benzopyran-7-yl)amino]pyrimidine-5-carboxamide]	55 nM
COc1cc2c(cc1Nc1ncc(C(N)=O)c(Nc3ccccc3-n3ccnn3)n1)CN(C)CC2 [Example 7-77, 2-[(6-methoxy-2-methyl-1,2,3,4-tetrahydroisoquinolin-7-yl)amino]-4-{[2-(1H-1,2,3-triazol-1-yl)phenyl]amino}pyrimidine-5-carboxamide]	0.23 nM
COc1ccc(S(C)(=O)=O)cc1Nc1ncc(C(N)=O)c(Nc2cccc3c2CCNC3)n1 [Example 7-63, 2-{[2-methoxy-5-(methylsulfonyl)phenyl]amino}-4-[(1,2,3,4-tetrahydroisoquinolin-5-yl)amino]pyrimidine-5-carboxamide]	103 nM
COc1cc2c(cc1Nc1ncc(C(N)=O)c(Nc3cccc4c3OCC4)n1)CN(C)CC2 [Example 7-7, 4-[(2,3-dihydro-1-benzofuran-7-yl)amino]-2-[(6-methoxy-2-methyl-1,2,3,4-tetrahydroisoquinolin-7-yl)amino]pyrimidine-5-carboxamide]	0.03 nM
COc1cc2c(cc1Nc1ncc(C(N)=O)c(Nc3cccc(CO)c3)n1)CN(C)CC2 [Example 1-1, 4-((3-(Hydroxymethyl)phenyl)amino)-2-((6-methoxy-2-methyl-1,2,3,4-tetrahydroisoquinolin-7-yl)amino)pyrimidine-5-carboxamide]	0.35 nM
CCS(=O)(=O)N1CCc2cc(OC)c(Nc3ncc(C(N)=O)c(Nc4ccccc4Br)n3)cc2C1 [Example 10-6, 4-[(2-bromophenyl)amino]-2-{[2-(ethylsulfonyl)-6-methoxy-1,2,3,4-tetrahydroisoquinolin-7-yl]amino}pyrimidine-5-carboxamide]	41.6 nM
COc1nn(C)cc1Nc1ncc(C(N)=O)c(Nc2cccc3c2CCNC3=O)n1 [Example 7-47, 2-[(3-methoxy-1-methyl-1H-pyrazol-4-yl)amino]-4-[(1-oxo-1,2,3,4-tetrahydroisoquinolin-5-yl)amino]pyrimidine-5-carboxamide]	3.57 nM
COc1cc2c(cc1Nc1ncc(C(N)=O)c(Nc3ccccc3C3CC3)n1)CN(C)CC2 [Example 4-26, 4-[(2-cyclopropylphenyl)amino]-2-[(6-methoxy-2-methyl-1,2,3,4-tetrahydroisoquinolin-7-yl)amino]pyrimidine-5-carboxamide]	0.17 nM
